Experimental data from US20170000377A1, “SYSTEM AND METHOD FOR IMAGING FREE RADICALS” (THE GENERAL HOSPITAL CORPORATION, priority 2014, published 2017).

Assay: OMRI of rat after MCAO and reperfusion with injected TEMPOL
Set-up: species or system Wistar rat
Details: following ischemia/reperfusion in vivo, imaged with OMRI
Procedure: A 3D OMRI process can be performed using a variation of a balanced steady state free precession (b-SSFP) pulse sequence, for example, such as described in Sarracanie M et al. MRM 2013 DOI: 10.1002/mrm.24705. To achieve sensitivity of b-SSFP-based OMRI to free radical concentration, an NMR/ESR coil setup can be used. For one in vivo experiment, a single loop ESR coil 400 was arranged inside a solenoid NMR coil 402, as illustrate din FIG. 4. Under anesthesia, MCAO occlusion was performed in a 3 month old Wistar rat by insertion of filament via external carotid artery. Following 75 min MCAO and 60 min reperfusion, 3.6 μl/gbw of 300 μM TEMPOL was injected into the carotid artery after which the animal was sacrificed and OMRI imaging begun.
The OMRI enhancement image may be computed from a ratio of OMRI to MRI magnitude. […] The phase of the OMRI image in FIG. 6 provides sensitive contrast even in cases where the radical concentration is very low and the Overhauser enhancement may be small.

CC1(C)CC(O)CC(C)(C)N1[O] [TEMPOL, 4-hydroxy-2,2,6,6-tetramethylpiperidin-1-oxyl]
crossing the BBB: crossing the BBB
